Data on 3 compounds can be found in publication PMC12736791, “Co-Amorphous Systems Based on Dihydroquercetin and L-Lysine: Synthesis and Evaluation” (Pharmaceutics, 2025).

Converted amounts (≈) assume the structure as drawn. Where two headings read alike, the source gives them in different places.

One series has as its system HEK293 cells. Put plainly: Cytotoxicity assay (CCK-8), HEK293. The class given is cell-based, human. To be noted: HEK293, 24 h. As for the experimental part:
(§1) The cells were cultured in a medium containing DMEM:FBS:MEM:P/S in a ratio of 88:10:1:1 for Caco-2 (immortalized human colorectal adenocarcinoma) cells, and DMEM:FBS:P/S in a ratio of 89:10:1 for HUVEC (Human umbilical vein endothelial cells), 3T3 (mouse embryonic fibroblasts), and HEK293 (immortalized human embryonic kidney) cell lines. The cell cultures were maintained in 100 mm diameter Petri dishes within a CelMate® CO2 Incubator (Esco Lifesciences Group, Singapore) at 37 °C in an atmosphere containing 5% carbon dioxide and a relative humidity of 95%. The culture medium was refreshed every 24 h.
(§2) To determine cell concentration, 1.0 mL of a trypsin solution containing EDTA, pre-warmed to 37 °C, was added to a Petri dish and incubated for up to 5 min. […] Subsequently, 100 µL of the solution was introduced into the Neubauer chamber XB.K.25 (QUIJING, Shanghai, China), and the concentration (cells/mL) was calculated using the following formula:(1) C=Ncell/Nsquares×[…], where Ncell represents the number of cells counted in the Neubauer chamber field and Nsquares represents the number of squares in the Neubauer chamber used for concentration calculation. […]
(§3) The resulting solutions were analyzed on a microplate spectrophotometer Eon (BioTek, Winooski, VT, USA) at the maximum absorption of the reduced form of CCK-8, measured at 450 nm. […]

A further series concerns Caco-2 cells. Put plainly: Cytotoxicity assay (CCK-8), Caco-2. The class given is cell-based, human. To be noted: Caco-2, 24 h. The method, then: as §1, §2, §3
A further series has as its system HUVEC cells. The experiment in a line: Cytotoxicity assay (CCK-8), HUVEC. The class given is cell-based, human. To be noted: 24 h. The method, then:
as §1, §2, §3

Another series deals with 3T3 cells. Put plainly: Cytotoxicity assay (CCK-8), 3T3. The class given is cell-based, mouse. As for the experimental part:
as §1, §2, §3

Details of series [1]: method as in PMID 38139995. To be noted: unmodified flavonoid; cited from earlier work.
Series [2] can be described thus: Solubility studies, pharmacopoeial descriptive terms. The class given is physicochemical. To be noted: in water at room temperature.
Description: The analysis was performed in accordance with the pharmacopoeial monograph of the State Pharmacopoeia of the Russian Federation XV, which is equivalent to the terms of the Pharmacopoeia of the Eurasian Economic Union and the European Pharmacopeia 11.5 at ambient conditions.
A measured amount of solvent was added to the suspension of the substance, and the mixture was continuously shaken for 1 min and placed in a thermostat set at a temperature of 24.5–25.5 °C for 15 min. If the substance had not completely dissolved, the shaking process was repeated for another minute, and the solution was kept in the thermostat for another 15 min period at the same temperature.
Details of series [3]: method as in earlier work. The conditions noted are these: water, room temperature; European Pharmacopoeia 11.5; cited from earlier work.

One may read the IC50 as the point on the concentration scale where inhibition reaches its midpoint. Regarding `NCCCC[C@H](N)C(=O)O` [LYSlyo], the IC50 is 1490 µg/mL (≈ 10200 µM) in the series with HEK293 cells; 538 µg/mL in the series with Caco-2 cells; 826 µg/mL (≈ 5650 µM) in the series on HUVEC cells; “above the maximum concentration” with 3T3 cells (3T3, 24 h).

Turning to `O=c1c(-c2ccc(O)cc2)coc2cc(O)cc(O)c12` [genistein], the Solubility of genistein in series [1] is 0.05 ± 0.01 µg/mL.

Take `O=C1c2c(O)cc(O)cc2OC(c2ccc(O)c(O)c2)C1O` (centres unmarked) [DHQraw, 2,3-dihydro-3,5,7-trihydroxy-2-(3,4-dihydroxyphenyl)-4H-1-benzopyran-4-one]: the IC50 worked out at 39 µg/mL (≈ 128 µM) in the series with HEK293 cells (Homo sapiens, read-out: IC50); 65 µg/mL in the series on Caco-2 cells (Homo sapiens, read-out: IC50); 88 µg/mL (≈ 289 µM) with HUVEC cells (Homo sapiens, read-out: IC50); 96 µg/mL (≈ 316 µM) with 3T3 cells (Mus musculus, NIH3T3, 3T3, 24 h, read-out: IC50). Moreover, the “Solubility (pharmacopoeial descriptive term)” value in series [2] and in series [3] was “very slightly soluble” throughout.
